Assay results published in patent US9073861B2, “Diphenylmethyl piperazine derivative and pharmaceutical composition using same” (AETAS PHARMA CO., LTD., priority 2011, dated 2015).

Tests used:
normal rats = experiment: Hemodynamics before and after intravenous administration in anesthetized normal rats (left ventricular pressure catheter); assay type: in vivo, Wistar male rats; settings: 0.1 mg/kg/min for 10 min i.v.; for maximum +dP/dt after administration as compared to that by the comparative compound [A]: FIG. 7; for maximum −dP/dt after administration as compared to that by the comparative compound [A]: FIG. 8
Method: Wistar male rats were bred for a week and then anesthetized by inhalation of 3% isoflurane. A pressure sensor-tipped catheter (2F Millar) was inserted into the left ventricle from the right common carotid artery, and a polyethylene tube (SP10) for injection of the compounds of the present invention or physiological saline was inserted from the right femoral vein. After stabilizing hemodynamics for 10 minutes, the compound [2] of the present invention was administered from the polyethylene tube at 0.1 mg/kg/min for 10 min, and the cardiac rate, left ventricular pressure, maximum +dP/dt, and maximum −dP/dt were measured for 20 heart beats every minute. In the control group, only physiological saline, which is a solvent, was administered. It is noted that the injection rate of each solution was 16.6 μl per min.
The cardiac rate, maximum left ventricular pressure, maximum +dP/dt and maximum −dP/dt before administration of a drug were considered as 100%, and the values after administration were represented by values (% representation) relative to the values before administration. Using n=3 rats, experiments were carried out. Data are shown as mean and standard deviation. Consequently, cardiac rate before and after administration (the left side in FIG. 1) and changes in the maximum left ventricular pressure (the right side in FIG. 1) are shown in FIG. 1, and changes in the maximum +dP/dt (the left side in FIG. 2) and changes in the maximum −dP/dt (the right side in FIG. 2) are shown in FIG. 2.
(§1) Wistar male rats were bred for a week and then anesthetized by inhalation of 3% isoflurane. Experiments were carried out in the same manner as in Test Example 1, and the compound [3] of the present invention was administered as a test compound at 0.1 mg/kg/min for 10 min, and the cardiac rate, left ventricular pressure, maximum +dP/dt, and maximum −dP/dt were measured for 20 heart beats every minute. The maximum +dP/dt or the maximum −dP/dt before administration was considered as 100%, and the value after administration was represented by a value (% representation) relative to the value before administration. Data are shown as mean and standard deviation. Using n=3 rats, experiments were carried out.
as §1, with “[4]” for “[3]”
Wistar male rats were bred for a week and then anesthetized by inhalation of 3% isoflurane. Experiments were carried out in the same manner as in Test Example 1, and the comparison comparative compound [A] was administered as a test compound at 0.1 mg/kg/min for 10 min, and the cardiac rate, left ventricular pressure, maximum +dP/dt, and maximum −dP/dt were measured for 20 heart beats every minute. The maximum +dP/dt or the maximum −dP/dt before administration was considered as 100%, and the value after administration was represented by a value (% representation) relative to the value before administration. Data are shown as mean and standard deviation. Using n=3 rats, experiments were carried out.
From the results of the tests carried out in Test Examples 1, 3, 4 and 5, the maximum +dP/dt (FIG. 7) and the maximum −dP/dt (FIG. 8) after administration of the compound [2], and compound [3], and compound [4] of the present invention as well as the comparative compound [A] were compared and examined.

[1] = tested on: rats with obsolete myocardial infarction; experiment: Effect on myocardial contraction and relaxation in rats with obsolete myocardial infarction (coronary ligation, one month after operation); assay type: in vivo, Wistar male rats; settings: 0.1 mg/kg/min for 10 min i.v., n=3
From the text: Wistar male rats were anesthetized by inhalation of 3% isoflurane. The chest was opened at the left third intercostal space and the pericardial membrane was incised. The left anterior descending coronary artery was completely ligated with silk string (6.0; Ethicon) in the infarction group, and then the chest was immediately closed. Following this procedure, the inserted endotracheal tube was removed, and rats were awakened and then returned to a breeding room.
One month after operation, rats were anesthetized and endotracheally intubated, a pressure sensor-tipped catheter (2F Millar) was inserted into the left ventricle from the right common carotid artery, and a polyethylene tube (SP10) for injection of physiological saline or the compounds of the present invention was inserted from the right femoral vein in the same manner as in Test Example 1. After stabilizing hemodynamics for 10 minutes, the compound [2] of the present invention was administered from the polyethylene tube at 0.1 mg/kg/min for 10 min, and the cardiac rate, left ventricular pressure, maximum +dP/dt, and maximum −dP/dt were measured for 20 heart beats every minute. In the control group, only physiological saline, which is a solvent, was administered. It is noted that the injection rate of each solution was 16.6 μl per min. Using n=3 rats, experiments were carried out.
The maximum +dP/dt or the maximum −dP/dt before administration was considered as 100%, and the value after administration was represented by a value (% representation) relative to the value before administration. Data are shown as mean and standard deviation.

Compound | maximum +dP/dt (index of contractile function) after vs before administration (normal rats; pre-administration = 100%, n=3) | maximum −dP/dt (index of relaxing function) after vs before administration (normal rats; pre-administration = 100%, n=3) | maximum +dP/dt after administration as compared to that by the comparative compound [A] (normal rats) | maximum −dP/dt after administration as compared to that by the comparative compound [A] (normal rats) | cardiac rate after administration relative to before administration (normal rats; pre-administration = 100%, n=3) | left ventricular pressure after administration relative to before administration (normal rats; pre-administration = 100%, n=3) | cardiac rate after vs before administration [1] | left ventricular pressure after vs before administration [1] | maximum +dP/dt after vs before administration ([1]; pre-administration = 100%) | maximum −dP/dt after vs before administration ([1]; pre-administration = 100%)
OC(CN1CCN(C(c2ccccc2)c2ccccc2)CC1)CN1CCC(O)(c2ccc(Cl)cc2)CC1 (centres unmarked) [comparative compound [A], 1-[4-(diphenylmethyl)piperazinyl]-3-[4-(4-chlorophenyl)-4-hydroxy-piperidinyl]-2-propanol, reference compound] | tended to slightly increase after administration of the comparative compound [A], but significant changes were not observed | tended to slightly increase after administration of the comparative compound [A], but significant changes were not observed | – | – | – | – | – | – | – | –
Cc1ccc(C2(O)CCN(CC(O)CN3CCN(C(c4ccccc4)c4ccccc4)CC3)CC2)cc1 (centres unmarked) [compound [4], 1-[4-(diphenylmethyl)piperazinyl]-3-[4-hydroxy-4-(4-methylphenyl)-piperidinyl]-2-propanol] | significantly increased | significantly increased | significantly raised | significantly raised | – | – | – | – | – | –
OC(CN1CCN(C(c2ccccc2)c2ccccc2)CC1)CN1CCC(O)(c2ccccc2)CC1 (centres unmarked) [compound [2], 1-[4-(diphenylmethyl)piperazinyl]-3-(4-hydroxy-4-phenyl-piperidinyl)-2-propanol] | significant increases | significant increases | significantly raised | significantly raised | not increased | significantly raised | significant changes in the cardiac rate were not observed | significantly increased | significantly increased | significantly increased
OC1(c2ccc(Cl)cc2)CCN(CCCN2CCN(C(c3ccccc3)c3ccccc3)CC2)CC1 [compound [3], 1-[4-(diphenylmethyl)piperazinyl]-3-[4-(4-chlorophenyl)-4-hydroxy-piperidinyl]propane] | significantly increased | significantly increased | significantly raised | significantly raised | – | – | – | – | – | –
